This is an account of results in patent publication US9695154B2, “Heteroaryl inhibitors of sumo activating enzyme” (MILLENNIUM PHARMACEUTICALS, INC., priority 2013, dated 2017).

Usually IC50 stands for the concentration that inhibits the measured activity by half. The term inhibition denotes the relative decrease from the control value, in per cent.

The target in the experiment is T1, recombinant human SAE enzyme (Homo sapiens, UniProt Q9UBT2).
T1 sequence (Q9UBT2 1-640): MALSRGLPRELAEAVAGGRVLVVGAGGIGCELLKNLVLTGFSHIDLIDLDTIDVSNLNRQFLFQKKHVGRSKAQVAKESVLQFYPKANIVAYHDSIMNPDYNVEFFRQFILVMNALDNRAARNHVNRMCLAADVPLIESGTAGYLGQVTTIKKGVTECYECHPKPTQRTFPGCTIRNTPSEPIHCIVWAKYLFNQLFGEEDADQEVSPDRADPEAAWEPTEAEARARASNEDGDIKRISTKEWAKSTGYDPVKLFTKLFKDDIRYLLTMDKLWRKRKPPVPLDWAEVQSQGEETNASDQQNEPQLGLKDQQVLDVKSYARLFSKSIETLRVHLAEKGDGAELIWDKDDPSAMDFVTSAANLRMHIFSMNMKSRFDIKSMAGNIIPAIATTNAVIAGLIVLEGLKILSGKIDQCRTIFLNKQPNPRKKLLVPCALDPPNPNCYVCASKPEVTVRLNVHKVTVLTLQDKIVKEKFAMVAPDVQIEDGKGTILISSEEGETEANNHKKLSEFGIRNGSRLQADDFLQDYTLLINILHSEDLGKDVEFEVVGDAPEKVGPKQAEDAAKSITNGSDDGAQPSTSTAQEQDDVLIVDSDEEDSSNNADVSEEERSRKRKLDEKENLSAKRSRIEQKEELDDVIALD
T1 sequence (Q9UBE0 1-346 partner): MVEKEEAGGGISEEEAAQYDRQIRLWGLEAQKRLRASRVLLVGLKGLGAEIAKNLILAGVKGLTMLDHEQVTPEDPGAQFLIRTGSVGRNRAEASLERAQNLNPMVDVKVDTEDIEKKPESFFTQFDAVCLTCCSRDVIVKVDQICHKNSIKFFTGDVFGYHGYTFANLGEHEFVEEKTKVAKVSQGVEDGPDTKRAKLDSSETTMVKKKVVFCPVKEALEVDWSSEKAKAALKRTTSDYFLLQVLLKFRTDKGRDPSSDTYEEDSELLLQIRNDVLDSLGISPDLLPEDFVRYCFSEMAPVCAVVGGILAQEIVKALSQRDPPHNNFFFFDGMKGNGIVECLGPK
The experiment can be described thus: SAE HTRF Enzyme Assay. In kind it is biochemical. The following applies: for IC50: class symbols A-C; for inhibition at 0.111 µM: compound concentration 0.111 μM, read-out: Percent Inhibition. The essentials: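 Sumoylation of Ubc9-GST by recombinant human SAE was followed by time-resolved FRET between Eu-cryptate anti-Flag and allophycocyanin anti-GST antibodies. The enzyme step used low ATP (0.5 μM) at pH 7.5 and ran 105 min at 24° C.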
On the technique in general: Time-resolved FRET reads energy transfer from a long-lived donor to a nearby acceptor.

`NS(=O)(=O)OC[C@H]1C[C@@H](Nc2ncncc2C(=O)c2ccn(Cc3cccc(Cl)c3)n2)[C@H](O)[C@@H]1O` [Compound I-40, {(1R,2R,3S,4R)-4-[(5-{[1-(3-Chlorobenzyl)-1H-pyrazol-3-yl]carbonyl}pyrimidin-4-yl)amino]-2,3-dihydroxycyclopentyl}methyl sulfamate]: the IC50 was less than 10 nM and the inhibition at 0.111 µM is 97%.

Take `COCc1ccc(Cn2ccc(C(=O)c3cncnc3N[C@@H]3C[C@H](COS(N)(=O)=O)[C@@H](O)[C@@H]3F)c2)o1` [Compound I-41, [(1R,2R,3R,4R)-3-fluoro-2-hydroxy-4-({5-[(1-{[5-(methoxymethyl)-2-furyl]methyl}-1H-pyrrol-3-yl)carbonyl]pyrimidin-4-yl}amino)cyclopentyl]methyl sulfamate]: the IC50 was less than 10 nM and the inhibition at 0.111 µM amounted to 94%.

Take `NS(=O)(=O)OC[C@H]1C[C@@H](Nc2ncncc2C(=O)c2ccn(Cc3cccc(I)c3)n2)[C@@H](F)[C@@H]1O` [Compound I-42, {(1R,2R,3R,4R)-3-fluoro-2-hydroxy-4-[(5-{[1-(3-iodobenzyl)-1H-pyrazol-3-yl]carbonyl}pyrimidin-4-yl)amino]cyclopentyl}methyl sulfamate]: the IC50 was less than 10 nM and the inhibition at 0.111 µM is 99%.

`NS(=O)(=O)OC[C@H]1C[C@@H](Nc2ncncc2C(=O)c2ccn(Cc3ccc(Cl)c(Br)c3)c2)C[C@@H]1O` [Compound I-43, {(1R,2S,4R)-4-[(5-{[1-(3-bromo-4-chlorobenzyl)-1H-pyrrol-3-yl]carbonyl}pyrimidin-4-yl)amino]-2-hydroxycyclopentyl}methyl sulfamate]: the IC50 is less than 10 nM and the inhibition at 0.111 µM amounted to 98%.

Regarding `NS(=O)(=O)OC[C@H]1C[C@@H](Nc2ncncc2C(=O)c2cc(F)n(Cc3cccc(Br)c3)c2)[C@@H](F)[C@@H]1O` [Compound I-44, {(1R,2R,3R,4R)-4-[(5-{[1-(3-Bromobenzyl)-5-fluoro-1H-pyrrol-3-yl]carbonyl}pyrimidin-4-yl)amino]-3-fluoro-2-hydroxycyclopentyl}methyl sulfamate], the IC50 was less than 10 nM and the inhibition at 0.111 µM turned out to be 99%.

For `Cn1nc(C(F)(F)F)cc1Cn1ccc(C(=O)c2cncnc2N[C@@H]2C[C@H](COS(N)(=O)=O)[C@@H](O)C2)c1` [Compound I-45, [(1R,2S,4R)-2-hydroxy-4-({5-[(1-{[1-methyl-3-(trifluoromethyl)-1H-pyrazol-5-yl]methyl}-1H-pyrrol-3-yl)carbonyl]pyrimidin-4-yl}amino)cyclopentyl]methyl sulfamate], the IC50 was in the range of 10 to 100 nM and the inhibition at 0.111 µM came out at 93%.

For the compound `NS(=O)(=O)OC[C@H]1C[C@@H](Nc2ncncc2C(=O)c2ccn(Cc3ccc(C(F)(F)F)c(F)c3)n2)[C@H](O)[C@@H]1O` [Compound I-46, [(1R,2R,3S,4R)-4-{[5-({1-[3-fluoro-4-(trifluoromethyl)benzyl]-1H-pyrazol-3-yl}carbonyl)pyrimidin-4-yl]amino}-2,3-dihydroxycyclopentyl]methyl sulfamate], the IC50 is less than 10 nM and the inhibition at 0.111 µM turned out to be 96%.

Regarding `NS(=O)(=O)OC[C@H]1C[C@@H](Nc2ncncc2C(=O)c2ccn(Cc3ccc(Cl)cc3)n2)C[C@@H]1O` [Compound I-47, {(1R,2S,4R)-4-[(5-{[1-{4-chlorobenzyl)-1H-pyrazol-3-yl]carbonyl}pyrimidin-4-yl)amino]-2-hydroxycyclopentyl}methyl sulfamate], the IC50 was less than 10 nM and the inhibition at 0.111 µM turned out to be 98%.

Consider `NS(=O)(=O)OC[C@H]1C[C@@H](Nc2ncncc2C(=O)c2ccn(Cc3ccc4ccccc4c3)n2)C[C@@H]1O` [Compound I-48, {(1R,2S,4R)-2-hydroxy-4-[(5-{[1-(2-naphthylmethyl)-1H-pyrazol-3-yl]carbonyl}pyrimidin-4-yl)amino]cyclopentyl}methyl sulfamate], for which the IC50 is less than 10 nM and the inhibition at 0.111 µM turned out to be 96%.

Turning to `NS(=O)(=O)OC[C@H]1C[C@@H](Nc2ncncc2C(=O)c2ccn(Cc3sc4ccccc4c3Cl)c2)[C@@H](F)[C@@H]1O` [Compound I-49, [(1R,2R,3R,4R)-4-{[5-({1-[(3-chloro-1-benzothiophen-2-yl)methyl]-1H-pyrrol-3-yl}carbonyl)pyrimidin-4-yl]amino}-3-fluoro-2-hydroxycyclopentyl]methyl sulfamate], the IC50 was less than 10 nM and the inhibition at 0.111 µM came to 93%.

As to `NS(=O)(=O)OC[C@H]1C[C@@H](Nc2ncncc2C(=O)c2ccn(Cc3cc(C(F)(F)F)ccc3Cl)n2)C[C@@H]1O` [Compound I-50, [(1R,2S,4R)-4-{[5-({1-[2-chloro-5-(trifluoromethyl)benzyl]-1H-pyrazol-3-yl}carbonyl)pyrimidin-4-yl]amino}-2-hydroxycyclopentyl]methyl sulfamate], the IC50 was less than 10 nM and the inhibition at 0.111 µM was 99%.

For the compound `Cc1ccnc(Cn2ccc(C(=O)c3cncnc3N[C@@H]3C[C@H](COS(N)(=O)=O)[C@@H](O)[C@H]3O)n2)c1` [Compound I-51, [(1R,2R,3S,4R)-2,3-dihydroxy-4-{[5-({1-[(4-methylpyridin-2-yl)methyl]-1H-pyrazol-3-yl}carbonyl)pyrimidin-4-yl]amino}cyclopentyl]methyl sulfamate], the IC50 was less than 10 nM and the inhibition at 0.111 µM came out at 100%.

Turning to `NS(=O)(=O)OC[C@H]1C[C@@H](Nc2ccncc2C(=O)c2ccn(Cc3cccc(Cl)c3)n2)C[C@@H]1O` [Compound I-52, {(1R,2S,4R)-4-[(3-{[1-(3-Chlorobenzyl)-1H-pyrazol-3-yl]carbonyl}pyridin-4-yl)amino]-2-hydroxycyclopentyl}methyl sulfamate], the IC50 was less than 10 nM and the inhibition at 0.111 µM was found to be 99%.

With `NS(=O)(=O)OC[C@H]1C[C@@H](Nc2ncncc2C(=O)c2ccn(Cc3ccnc(C(F)(F)F)c3)n2)C[C@@H]1O` [Compound I-53, [(1R,2S,4R)-2-hydroxy-4-({5-[(1-{[2-(trifluoromethyl)pyridin-4-yl]methyl}-1H-pyrazol-3-yl)carbonyl]pyrimidin-4-yl}amino)cyclopentyl]methyl sulfamate], the IC50 was 10 to 100 nM and the inhibition at 0.111 µM was found to be 79%.

With `NS(=O)(=O)OC[C@H]1C[C@@H](Nc2ncnc(Cl)c2C(=O)c2ccn(Cc3cccc(Cl)c3)n2)C[C@@H]1O` [Compound I-54, {(1R,2S,4R)-4-[(6-Chloro-5-{[1-(3-chlorobenzyl)-1H-pyrazol-3-yl]carbonyl}pyrimidin-4-yl)amino]-2-hydroxycyclopentyl}methyl sulfamate], the IC50 was 10 to 100 nM and the inhibition at 0.111 µM is 63%.

With `CC1CC1Cn1ccc(C(=O)c2cncnc2N[C@@H]2C[C@H](COS(N)(=O)=O)[C@@H](O)C2)n1` (stereo partly drawn) [Compound I-55, [(1R,2S,4R)-hydroxy-4-{[5-({1-[((1S,2S)-2-methylcyclopropyl)methyl]-1H-pyrazol-3-yl}carbonyl)pyrimidin-4-yl]amino}cyclopentyl]methyl sulfamate and [(1R,2S,4R)-2-hydroxy-4-{[5-({1-[((1R,2R)-2-methylcyclopropyl)methyl]-1H-pyrazol-3-yl}carbonyl)pyrimidin-4-yl]amino}cyclopentyl]methyl sulfamate], the IC50 is 10 to 100 nM and the inhibition at 0.111 µM turned out to be 58%.

For the compound `NS(=O)(=O)OC[C@H]1C[C@@H](Nc2ccncc2C(=O)c2ccn(Cc3ccccc3)n2)[C@H](O)[C@@H]1O` [Compound I-56, [(1R,2R,3S,4R)-4-({3-[(1-Benzyl-1H-pyrazol-3-yl)carbonyl]pyridin-4-yl}amino)-2,3-dihydroxycyclopentyl]methyl sulfamate], the IC50 is less than 10 nM and the inhibition at 0.111 µM is 100%.

In the case of `COc1cc(Cn2ccc(C(=O)c3cncnc3N[C@@H]3C[C@H](COS(N)(=O)=O)[C@@H](O)[C@@H]3F)c2)ccc1F` [Compound I-57, {(1R,2R,3R,4R)-3-Fluoro-4-[(5-{[1-(4-fluoro-3-methoxybenzyl)-1H-pyrrol-3-yl]carbonyl}pyrimidin-4-yl)amino]-2-hydroxycyclopentyl}methyl sulfamate], the IC50 was less than 10 nM and the inhibition at 0.111 µM is 98%.

As for `NS(=O)(=O)OC[C@H]1C[C@@H](Nc2ncncc2C(=O)c2ccn(Cc3ccc(Cl)c(Cl)c3)n2)C[C@@H]1O` [Compound I-58, {(1R,2S,4R)-4-[(5-{[1-(3,4-dichlorobenzyl)-1H-pyrazol-3-yl]carbonyl}pyrimidin-4-yl)amino]-2-hydroxycyclopentyl}methyl sulfamate], the IC50 was less than 10 nM and the inhibition at 0.111 µM was found to be 88%.
